Assay results as given in patent publication US4011207A, “Des-(Ala^1, Gly^2,Lys^4 -Srif, Des-(Ala^1, Gly^2, Lys^4)-D-Trp^8 -Srif and intermediates” (American Home Products Corporation, priority 1976, dated 1977).
Structures can show the parent of a compound that is named as a salt. Where a SMILES comes first, the peptide text is derived from it. Bridges are numbered along the chain shown (N, C = ends).

Tests used:
Type in all cases: in vivo
glucagon = test: Glucagon concentration in rats, same technique; settings: dose 1 mg/kg, control 37±2, not effected
Method: (§1) The growth hormone activity of the compound of Example 2 was determined by injecting rats weighing about 150 g. first with nembutal intraperitoneally at a dose of 50 mg/kg then after 5 minutes injecting the rats subcutaneously with a solution of the compound of Example 2 in saline at a dose of 100 m.g. per rat. Blood samples are taken 15 minutes after injection with the compound of Example 2 and the growth hormone level determined by radioimmunoassay.
(§2) The activity of the product of Example 3 was determined by the same technique as the compound of Example 2. The dose given the test animals was 1 mg/kg. Growth hormone concentration was reduced to 28±4 ng/ml from the control level of 75±16 (p<0.01). The insulin concentration in micro units per milliliter was reduced marginally to 168±13 from the control level of 208±11 (p>0.05). The glucagon concentration in pico grams per milliliter was not effected, being 31±3 in the treated animals as opposed to 37±2 in the control animals.

insulin = test: Insulin concentration in rats, same technique; settings: dose 1 mg/kg, control level 208±11 (p>0.05), reduced marginally
Method: as §1, §2

growth hormone = test: Growth hormone level by radioimmunoassay in nembutal-treated rats after subcutaneous injection
Method: as §1, §2

Molecule	glucagon concentration (glucagon) [pico grams per milliliter]	insulin concentration (insulin)	Growth hormone concentration (growth hormone; rats, dose 1 mg/kg, same technique, control level 75±16 (p<0.01)) [ng/mL]	growth hormone level (growth hormone; rats about 150 g, nembutal 50 mg/kg i.p., compound s.c. in saline at 100 m.g. per rat, blood 15 minutes after injection, control 212±26 ng/ml) [ng/mL]
N-tert-Butyloxycarbonyl-S-p-methoxybenzyl-L-cysteinyl-L-asparaginyl-L-phenylalanyl-L-phenylalanyl-D-tryptophyl-ε-2-chlorobenzyloxycarbonyl-L-lysyl-O-benzyl-L-threonyl-L-phenylalanyl-O-benzyl-L-threonyl-O-benzyl-L-seryl-S-p-methoxybenzyl-L-cysteinyl-hydroxymethyl polystyrene [Example 3]	31±3	168±13 micro units per milliliter	28 ± 4	
C[C@@H](O)[C@@H]1NC(=O)[C@H](Cc2ccccc2)NC(=O)[C@H]([C@@H](C)O)NC(=O)[C@H](CCCCN)NC(=O)[C@H](Cc2c[nH]c3ccccc23)NC(=O)[C@H](Cc2ccccc2)NC(=O)[C@H](Cc2ccccc2)NC(=O)[C@H](CC(N)=O)NC(=O)[C@@H](N)CSSC[C@@H](C(=O)O)NC(=O)[C@H](CO)NC1=O [Example 2, L-Cysteinyl-L-asparaginyl-L-phenylalanyl-L-phenylalanyl-L-tryptophyl-L-lysyl-L-threonyl-L-phenylalanyl-L-threonyl-L-seryl-L-cysteine- (1,11 cyclic disulfide), diacetate salt] (H-CNFFWKTFTSC-OH; disulfide 1-11)				103 ± 13
